The values that follow are results of earlier work, collected in PMC11088877, “AMP-activated protein kinase can be allosterically activated by ADP but AMP remains the key activating ligand” (Biochemical Journal, 2024).

This series addresses bacterially expressed AMPK heterotrimers (γ subunit CBS sites). Conditions: in the presence of Mg2+ and staurosporine; read-out: estimated Kd at the CBS3 site; cited from earlier work.

Regarding `Nc1ncnc2c1ncn2[C@@H]1O[C@H](COP(=O)(O)OP(=O)(O)OP(=O)(O)O)[C@@H](O)[C@H]1O` [ATP], the Kd – broadly, the concentration at which binding is half-saturated – was 100 to 500 µM.
